Converted amounts (≈) assume the structure as drawn. “And” between values parts separate entries of the source, which are not always exact repeats. Identical values can stand only once.
Tests used:
Friend-Leukemia virus = assay: Inhibition of retrovirus-induced splenomegaly in Friend-Leukemia virus infected mice (Table 9); assay type: in vivo
Procedure: Mice were infected I.P. with Friend-Leukemia virus and not treated or treated I.P. with daily doses of phospholipid. After 14 days infection and treatment, the mice were sacrificed, the spleens were removed and weighed to determine the percentage, of control splenomegaly. […] Even a single dose of 25 mg/kg CP-51 inhibited splenomegaly by 36%.

[1] = test system: granulocyte/macrophage (CFU-GM); assay: Cytotoxicity: inhibition of mouse granulocyte/macrophage (CFU-GM) colony formation; assay type: cell-based; details: read-out: inhibitory concentration 50% for colony formation (IC50)
Procedure: CP-51 and AZT were assayed for cytotoxicity by inhibition of mouse precursor erythrocyte (CFU-E) and granulocyte/macrophage (CFU-GM) cell colony formation. Mouse bone marrow precursor cells were suspended in soft-agar-RPMI-1640 medium supplmented with cell growth factors and serial concentrations of alkyl lipid.

[2] = test system: mouse precursor erythrocyte (CFU-E); assay: Cytotoxicity: inhibition of mouse precursor erythrocyte (CFU-E) colony formation; assay type: cell-based; details: Mus musculus, Erythrocyte, read-out: inhibitory concentration 50% for colony formation (IC50)
Procedure: CP-51 and AZT were assayed for cytotoxicity by inhibition of mouse precursor erythrocyte (CFU-E) and granulocyte/macrophage (CFU-GM) cell colony formation.

[3] = Cytotoxicity of alkyl lipids, neutral red dye uptake (Table 1); assay type: cell-based; details: human, hep-g2 cells
Source text: Initially, evaluations of the alkyl lipids were done to determine whether the compounds were cytotoxic to the cells at concentrations having anti-HBV activity. The assay methodology is szt forth in Korba and Germ, Antiviral Res., 19, 55-70 (1992), incorporated by reference herein. Briefly, these cell cytotoxicity evaluations were done in 96-well plates seeded with HEP-G2 cell monolayers. The hepatoblastoma cell line HEP-G2 transfected with a plasmid carrying the gene that confers resistance to […] and four 5'-3' tandem copies of the Hepatitis B virus genome was obtained from Dr. George Acs. Proc. Natl. Acad. Sci. USA, 84, 1005-1009 (1987). Serial concentrations of compound were added to the RPMI-1640 growth medium and the growth medium was added to the 96-well plates containing the cell monolayers. The cells were incubated for a total of nine days at 37° C. The compound-containing medium was periodically replaced. Each compound was tested at four serial concentrations in triplicate. After nine days of treatment and incubation, 0.01% neutral red dye (Sigma, Inc.) was added to the overlay medium. Cell cytotoxicity was quantitated by measuring the average A510. Values in Table 1 represent the percentage of average A510 values (±standard deviation) relative to nine non-treated control wells.

Hepatitis B virus [4] = assay: Anti-hepatitis B virus activity in HEP-G2 cells persistently infected with HBV (Table 2); assay type: cell-based; details: Hepatitis B virus, HepG2, 216 h, 10 μM, 9 days treatment
Procedure: HEP-G2 cells persistently infected with HBV were treated daily with fresh D-MEM containing 20% FBS and 10 μM compound. After 9 days incubation and treatment, the overlay medium was harvested to assay the quantity of Hepatitis B virus s antigen (HBsAg) and HBeAg by EIA (Abbott Laboratories). The overlay medium was diluted to levels of antigen in the linear range of the assay. Standard curves using dilutions of positive HBsAg and HBeAg controls were included in each assay. Virion DNA was assayed using the method set forth in Korba and Gerin, Antiviral Res., 19, 5,5-70 (1992), incorporated by reference herein. HBV DNA was extracted from the overlay medium containing virus particles and analyzed by a slot-blot hybridization technique using ^32 P-labelled 3.2 Kb Eco R1 HBV DNA fragment by comparisons to HBV standards present on nitrocellulose filters using an AMBIS beta scanner. EC90 values (90% effective concentration, i.e., drug concentration which induces a 90% decrease in the levels of HBV DNA replication intermediates in treated versus control cells) were calculated by linear regression analysis. The relative levels of HBsAg, HBeAg and virion DNA were calulated as a percentage of the average levels obtained from the untreated controls.

Hepatitis B virus [5] = assay: Effect of alkyl lipids on HBV replication in HBV persistently infected human HEP G2 cells (Table 6); assay type: cell-based; details: for Intracellular HBV DNA, Mono (episomal 3.2-3.8 Kb HBV genomes) / Intracellular HBV DNA, RI (replication intermediates): nine days
Outline: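 Persistently HBV-infected HepG2 cells exposed to compound for nine days at 37 °C, intracellular HBV DNA analysed 24 h after day nine. Episomal 3.2-3.8 Kb genomes and replication intermediates normalized to integrated HBV DNA; virion DNA detection cut-off 0.1 pg DNA/ml culture medium.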

[6] = Cytotoxicity in HBV persistently infected human HEP G2 cells, neutral red dye uptake (Table 5); assay type: cell-based; details: human, hep-g2 cells, % of Control Neutral Red Dye Uptake
Outline: (§1)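 HBV-transfected HEP-G2 monolayers in RPMI-1640 were given compound at four serial concentrations in triplicate for nine days at 37 °C, with periodic medium replacement. Toxicity from 0.01% neutral red uptake (A510), as percent of nine untreated control wells on the same plate.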

[7] = test system: HEP G2 cells persistently infected with HBV; assay: as above; assay type: cell-based
Outline: as §1

Hepatitis B virus [8] = assay: Effect on synthesis of antigen markers in persistently infected human HEP G2 cell cultures (Table 7); assay type: cell-based; details: 10 μM, nine days; for activity at 10 µM: Hepatitis B virus, HepG2, 216 h
Outline: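 Persistently infected HepG2 cells treated with compound for nine days at 37° C. Culture medium then harvested: HBsAg and HBeAg quantified by EIA, virion DNA by hybridisation-based DNA measurement. Sensitivity cut-off 0.1 pg DNA/ml medium.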

[9] = read-out: Relative Level of HBeAg
[10] = read-out: Relative Level of HBsAg
[11] = read-out: Relative Level of Virion DNA

## Cc1cn([C@H]2C[C@H](N=[N+]=[N-])[C@@H](CO)O2)c(=O)[nH]c1=O [AZT, 3'-azido-3'deoxythymidine, reference compound]
Friend-Leukemia virus; 12.5 mg/kg/day intraperitoneally
  inhibition of retrovirus-induced splenomegaly: 10%
Friend-Leukemia virus; 12.5 mg/kg/day, daily treatment
  % of Control Splenomegaly: 10 % of Control
[1]
  IC50: 0.27 µg/mL (≈ 1.01 µM)
[2]
  IC50: 0.43 µg/mL (≈ 1.61 µM)

## CCCCCCCCCCCCCCCCSCC(C[N+](C)(C)CCO)OC (racemic) [CP-7, N-[rac-3-(hexadecylthio)-2-methoxy-1-propyl]-N,N-dimethyl-N-(2-hydroxyethyl) ammonium bromide]
[3]
  cytotoxicity at 216 h, 30 µM: 33%
  viability at 216 h, 3 µM: 98 ± 2%
  viability at 216 h, 10 µM: 102 ± 6%
  viability at 216 h, 30 µM: 67 ± 3%
  viability at 216 h, 100 µM: 24 ± 2%
Hepatitis B virus [4]; [9]
  activity at 10 µM: 43%
Hepatitis B virus [4]; [10]
  activity at 10 µM: 74%
Hepatitis B virus [4]; [11]
  activity at 10 µM: 10%
Hepatitis B virus [5]; 0.1 μM, Day 0
  HBV Virion DNA: 51 pg/ml Culture Medium and 77 pg/ml Culture Medium and 64 pg/ml Culture Medium
Hepatitis B virus [5]; 0.1 μM, Day 3
  HBV Virion DNA: 72 pg/ml Culture Medium and 75 pg/ml Culture Medium and 66 pg/ml Culture Medium and 51 pg/ml Culture Medium
Hepatitis B virus [5]; 0.1 μM, Day 6
  HBV Virion DNA: 58 pg/ml Culture Medium and 65 pg/ml Culture Medium and 98 pg/ml Culture Medium and 75 pg/ml Culture Medium
Hepatitis B virus [5]; 0.1 μM, Day 9
  HBV Virion DNA: 57 pg/ml Culture Medium and 89 pg/ml Culture Medium and 84 pg/ml Culture Medium and 76 pg/ml Culture Medium
Hepatitis B virus [5]; 0.1 μM
  Intracellular HBV DNA, Mono (episomal 3.2-3.8 Kb HBV genomes): 2.5 pg/μg Cell DNA and 2.6 pg/μg Cell DNA and 2.8 pg/μg Cell DNA and 2.3 pg/μg Cell DNA
  Intracellular HBV DNA, RI (replication intermediates): 73 pg/μg Cell DNA and 62 pg/μg Cell DNA and 57 pg/μg Cell DNA and 76 pg/μg Cell DNA
Hepatitis B virus [5]; 1 μM, Day 0
  HBV Virion DNA: 53 pg/ml Culture Medium and 64 pg/ml Culture Medium and 54 pg/ml Culture Medium
Hepatitis B virus [5]; 1 μM, Day 3
  HBV Virion DNA: 56 pg/ml Culture Medium and 51 pg/ml Culture Medium and 66 pg/ml Culture Medium and 58 pg/ml Culture Medium
Hepatitis B virus [5]; 1 μM, Day 6
  HBV Virion DNA: 46 pg/ml Culture Medium and 52 pg/ml Culture Medium and 59 pg/ml Culture Medium
Hepatitis B virus [5]; 1 μM, Day 9
  HBV Virion DNA: 48 pg/ml Culture Medium and 44 pg/ml Culture Medium and 49 pg/ml Culture Medium and 41 pg/ml Culture Medium
Hepatitis B virus [5]; 1 μM
  Intracellular HBV DNA, Mono (episomal 3.2-3.8 Kb HBV genomes): 2.7 pg/μg Cell DNA and 2.2 pg/μg Cell DNA and 2.3 pg/μg Cell DNA and 2.4 pg/μg Cell DNA
  Intracellular HBV DNA, RI (replication intermediates): 70 pg/μg Cell DNA and 75 pg/μg Cell DNA and 63 pg/μg Cell DNA and 68 pg/μg Cell DNA
Hepatitis B virus [5]; 10 μM, Day 0
  HBV Virion DNA: 49 pg/ml Culture Medium and 63 pg/ml Culture Medium and 70 pg/ml Culture Medium and 65 pg/ml Culture Medium
Hepatitis B virus [5]; 10 μM, Day 3
  HBV Virion DNA: 70 pg/ml Culture Medium and 64 pg/ml Culture Medium and 67 pg/ml Culture Medium and 59 pg/ml Culture Medium
Hepatitis B virus [5]; 10 μM, Day 6
  HBV Virion DNA: 35 pg/ml Culture Medium and 28 pg/ml Culture Medium and 33 pg/ml Culture Medium
Hepatitis B virus [5]; 10 μM, Day 9, 0 = undetectable, cut-off 0.1 pg DNA/ml
  HBV Virion DNA: 8 pg/ml Culture Medium and 9 pg/ml Culture Medium and 7 pg/ml Culture Medium
Hepatitis B virus [5]; 10 μM
  Intracellular HBV DNA, Mono (episomal 3.2-3.8 Kb HBV genomes): 2.3 pg/μg Cell DNA and 2.6 pg/μg Cell DNA and 2.5 pg/μg Cell DNA
  Intracellular HBV DNA, RI (replication intermediates): 11 pg/μg Cell DNA and 13 pg/μg Cell DNA and 10 pg/μg Cell DNA and 14 pg/μg Cell DNA
[6]
  viability at 216 h, 3 µM: 98 ± 2%
  viability at 216 h, 10 µM: 102 ± 6%
  viability at 216 h, 30 µM: 67 ± 3%
  viability at 216 h, 100 µM: 24 ± 2%
[7]
  Cell toxicity (greater than 50% depression of dye uptake): did not occur
Hepatitis B virus [8]; 12960 min
  Relative Level of HBeAg: 40 % of Untreated Control
  Relative Level of HBsAg: 69 % of Untreated Control
  Relative Level of Virion DNA: 10 % of Untreated Control
Hepatitis B virus [8]; [9]
  activity at 10 µM: 46%
Hepatitis B virus [8]; [10]
  activity at 10 µM: 79%
Hepatitis B virus [8]; [11]
  activity at 10 µM: 9%

— US6030960A, “Method of treating hepatitis virus infections” (priority 1998, dated 2000)
